Experiments:
Assay type in all cases: in vivo
caspase 8 = biological target: T1, caspase 8 (Mus musculus, UniProt O89110); test: Lipopolysaccharide inflammation model, caspase 8 detection with IETDC; conditions: pan-caspase inhibitor 1 μmol IP, LPS-treated mice
T1 construct: from tissue; host or cells: living FVB-luc+ mice (whole animal, IP injection) after LPS challenge
T1 sequence (O89110 219-376 limits assumed): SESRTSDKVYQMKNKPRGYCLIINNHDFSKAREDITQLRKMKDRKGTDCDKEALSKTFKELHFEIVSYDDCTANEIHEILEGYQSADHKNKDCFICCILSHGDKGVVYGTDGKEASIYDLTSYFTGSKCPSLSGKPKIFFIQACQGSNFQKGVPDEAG
T1 sequence (O89110 388-480 limits assumed): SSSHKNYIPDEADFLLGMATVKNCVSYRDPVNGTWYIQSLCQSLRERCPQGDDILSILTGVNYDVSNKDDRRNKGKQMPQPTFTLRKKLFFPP
From the text: (§1) A Xenogen IVIS Spectrum instrument (Caliper Life Sciences, Hopkinton, Mass.) was used for bioluminescent imaging in all animal experiments. Mice were anesthetized prior to injection and during imaging via inhalation of isoflurane. Phosphate Buffered Saline (PBS) was purchased from Thermo Fisher Scientific (Waltham, Mass.), and saline (0.9%) was made from sodium chloride and Millipore water. Isoflurane was purchased from Phoenix Pharmaceuticals, Inc. (St. Joseph, Mo.), and pharmaceutical grade DMSO was purchased from Sigma-Aldrich (St. Louis, Mo.). Medical grade oxygen was purchased from Praxair (Danbury, Conn.).
(§2) FVB-luc^+ (FVB-Tg(CAG-luc,-GFP)L2G85Chco/J) mice were bred at UC Berkeley, and were single or group-housed on a 12:12 light-dark cycle at 22° C. with free access to food and water. All studies were approved and performed according to the guidelines of the Animal Care and Use Committee of the University of California, Berkeley.
Unshaven, female FVB-luc^+ mice, aged 2-5 months, were anesthetized with isoflurane and injected IP with lipopolysaccharides (LPS, 3 mg/kg in 50 μL of saline) or saline (50 μL). For studies with PCL-2 alone, mice were injected IP with either apocynin (10 mg/kg in 20 μL of DMSO) or DMSO (20 μL) 6 h after LPS injection. […]

H2O2 and caspase 8 = test: Lipopolysaccharide inflammation model, dual detection with PCL-2 and IETDC; conditions: ascorbic acid 200 mg/kg and z-VD-OPh 1 μmol used together, LPS-treated mice
From the text: as §1, §2
For studies with PCL-2 and IETDC, mice were injected IP with ascorbic acid (200 mg/kg in 30 μL of saline) or the saline vehicle (30 μL) 30 min prior to IP injection of LPS (3 mg/kg in 50 μL of saline) or saline (50 μL). Two hours after injection of LPS, z-VD(OMe)-OPh (1 μmol in 20 μL of DMSO) or the vehicle, DMSO (20 μL), was injected IP. […]

FVB-luc^+ mice = test: Control: effect of inhibitors and antioxidants on HCBT and D-cysteine luciferin signal in mice; conditions: apocynin 10 mg/kg or z-VD-OPh 1 μmol IP; HCBT and D-cysteine 0.01 μmol each
Experimental: (a) Total photon fluxes, 0-15 min post-injection, for mice (n=3) injected with apocynin (IP, 10 mg/kg in 20 μL DMSO) or vehicle (IP, 20 μL DMSO) two min prior to injections of a mixture of HCBT and D-cysteine (IP, 0.01 μmol each, in 50 μL of 1:1 DMSO:PBS). (b) Total photon fluxes, 15-45 min post-injection, for mice (n=3) injected with z-VD(OMe)-OPh (IP, 1 μmol in 20 μL DMSO) or vehicle (IP, 20 μL DMSO) 30 min prior to injections of a mixture of HCBT and D-cysteine (IP, 0.01 μmol each, in 50 μL of 1:1 DMSO:PBS). Error bars are ±SEM.
FIG. 18 depicts bioluminescent signals from HCBT and D-cysteine with ascorbic acid in FVB-luc^+ mice. Total photon fluxes, 30-60 min post-injection, for mice (n=3-4) injected with ascorbic acid (IP, 200 mg/kg in 30 μL saline) or vehicle (IP, 30 μL saline) 4.5 h prior to injections of a mixture of HCBT and D-cysteine (IP, 0.01 μmol each, in 50 μL of 1:1 DMSO:PBS). Error bars are ±SEM.

[1] = Antioxidant (NAC) experiments in mice; conditions: NAC 10 mg/kg IP, H2O2 1.5 μmol, PCL-2 and D-cysteine 0.05 μmol each
From the text: A Xenogen IVIS Spectrum instrument (Caliper Life Sciences, Hopkinton, Mass.) was used for bioluminescent imaging in all animal experiments. Mice were anesthetized prior to injection and during imaging via inhalation of isoflurane. Phosphate Buffered Saline (PBS) was purchased from Thermo Fisher Scientific (Waltham, Mass.), and saline (0.9%) was made from sodium chloride and Millipore water. Isoflurane was purchased from Phoenix Pharmaceuticals, Inc. (St. Joseph, Mo.), and pharmaceutical grade DMSO was purchased from Sigma-Aldrich (St. Louis, Mo.). Medical grade oxygen was purchased from Praxair (Danbury, Conn.). FVB-luc^+ (FVB-Tg(CAG-luc,-GFP)L2G85Chco/J) mice were bred at UC Berkeley, and were single or group-housed on a 12:12 light-dark cycle at 22° C. with free access to food and water. All studies were approved and performed according to the guidelines of the Animal Care and Use Committee of the University of California, Berkeley. Unshaven, male FVB-luc^+ mice, were anesthetized with isoflurane and injected IP with NAC (10 mg/kg in 25 μL of PBS, pH 7-8) or PBS (25 μL). After 2 min, the mice were injected IP with a mixture of PCL-2 and D-cysteine (0.05 μmol each, in 50 μL of 1:1 DMSO:PBS) immediately prior to IP injection of H2O2 (1.5 μmol in 75 μL of PBS). […]

Structure (SMILES)	attenuation of the IETDC signal (caspase 8) [%]	decrease in dual-probe bioluminescent signal (H2O2 and caspase 8) [%]	effect on the luciferin signal from HCBT and D-cysteine in vivo (FVB-luc^+ mice)	effect of NAC on the PCL-2 bioluminescent signal [1]
COC(=O)CC(NC(=O)C(NC(=O)OCc1ccccc1)C(C)C)C(=O)COc1c(F)cccc1F (stereo not shown) [z-VD-OPh]	34	30	do not alter the luciferin signal	–
CC(=O)N[C@@H](CS)C(=O)O [NAC, N-acetyl-L-cysteine]	–	–	–	considerably attenuated

From patent publication US10328161B2, “Luciferin derivatives from bicyclic reactants and aminothiol derivatives and methods of use thereof” (The Regents of the University of California, priority 2012, dated 2019)
